# Key:
# NR1/2A receptors = target: T1, NR1/2A receptors (Rattus norvegicus, UniProt P35439+Q00959); test: whole-cell patch-clamp of transfected HEK293 cells, NR1/2A, 100 μM glutamate plus 10 μM glycine; assay type: cell-based
# T1 construct: expressed in transfected cells; host or cells: HEK293 (ATCC CRL1573), transient transfection
# Protocol: (§1) Human embryonic kidney 293 (HEK293) fibroblasts (ATCC CRL1573) were cultured in minimal essential medium supplemented with 10% fetal bovine serum and 2 mM glutamine (Life Technologies, Rockville, Md.). Cells were plated on poly-D-lysine-coated 35 mm nunc dishes, transfected by the LipofectaminePLUS method (Life Technologies), and examined functionally between 18-48 h post transfection. The following receptor subunit cDNAs were used: nAChR-α3 (nicotinic acetylcholine receptor-α3; accession no. L31621), nAChR-α4 (accession no. L31620), nAChR-β2 (accession no. L31622), nAChR-β4 (accession no. U42976), 5-HT3R-A (5-HT3A receptor; accession no. M74425), NR1 (N-methyl-D-aspartate receptor 1; accession no. X63255), NR2A (accession no. X91561), and NR2B (accession no. M91562). The nAchR and NR clones were rat; the 5-HT3R-A clone was mouse. Co-transfection of enhanced green fluorescent protein (“EGFP”) (10% of total cDNA) provided a marker to identify transfected cells. Transfected cells were selected for EGFP expression and examined by voltage-clamp recording in the whole-cell configuration using an Axopatch 200B patch-clamp amplifier (Axon Instruments, Foster City, Calif.). Thin-walled borosilicate glass microelectrodes (TW150F, World Precision Instruments, Sarasota, Fla.) had resistances of 3-5 MΩ when filled with an internal solution containing (in mM): 135 CsCl, 10 CsF, 10 HEPES (N-[2-hydroxyethyl]piperazine-N′-[2-ethanesulfonic acid]), 5 EGTA (ethylene glycol-bis[β-aminoethyl ether]-N,N,N′,N′-tetraacetic acid), 1 MgCl2, 0.5 CaCl2, pH 7.2. Whole-cell capacitance and series resistance were recorded and adequately compensated using the available circuitry of the amplifier. Current responses were filtered at 1 kHz with an 8-pole Bessel filter (Cygnus Technologies, Delaware Water Gap, Pa.), digitized at 3 kHz, and stored on a Macintosh PowerPC-G3 computer using an ITC-16 interface (Instrutech, Great Neck, N.Y.) under control of the data acquisition and analysis program Synapse (Synergy Research, Gaithersburg, Md.). Cells were continuously superfused with extracellular solution containing (in mM): 150 NaCl, 3 KCl, 5 HEPES, 1 MgCl2, 1.8 CaCl2, 10 glucose, and 0.1 mg/ml phenol red, pH 7.3 (MgCl2 was omitted from all solutions used for the study of NMDA receptors). […] Control, agonist, and drug solutions were applied to individual cells by rapid perfusion. Solutions were driven by a syringe pump through a flowpipe having 4 inputs that converge at a single common output of approximately 100 μm diameter. Rapid switching between inputs was achieved using a set of upstream solenoid valves (Lee Co., Westbrook, Conn.) under computer control; the solution exchange rate was ˜5 ms as measured from liquid junction currents.
# (§2) To study these, transfected HEK293 cells expressing NR1/2A or NR1/2B receptors were voltage-clamped to −70 mV and stimulated with 100 μM glutamate plus 10 μM glycine at 30 s intervals. […] In FIGS. 3A and 3B, open bars depict the timing of agonist application, filled bars depict the timing of co-application of 20 μM IBO or 20 μM 18MC, and inhibition was measured relative to control at the end of the drug application (indicated by arrows).
# nACh receptors = target: T2, nACh receptors (Rattus norvegicus, UniProt P09483+P12390); test: whole-cell patch-clamp of transfected HEK293 cells, neuronal nACh receptors, 300 μM ACh; assay type: cell-based; details: 300 μM ACh, estimated from 5 and 20 μM data; read-out: IC50 suggested by the inhibition data
# T2 construct: expressed in transfected cells; host or cells: HEK293 (ATCC CRL1573), transient transfection
# Protocol: as §1
# (§3) Transfected HEK293 cells expressing various receptor subunit cDNAs were examined by whole-cell patch-clamp recording with fast perfusion of agonist and drug solutions. […] Transfected HEK293 cells expressing α3β4 nACh receptors were voltage-clamped to −70 mV and stimulated with 1 mM ACh at 30 s intervals. […] In FIG. 1A, open bars depict the timing of ACh application; filled bars depict the timing of co-application of 20 μM IBO or 20 μM 18MC; and inhibition was measured relative to control at the end of the drug application (indicated by arrows). […] The data presented in FIG. 1B are mean±SEM for 3-14 cells per point, and curve fits are given for the logistic equation: I=Imax/(1+([drug]/IC50)). […] In this case, transfected HEK293 cells expressing α3β4 nACh receptors were voltage-clamped to −70 mV and stimulated with 300 μM ACh at 30 s intervals.
# α3β4 nACh receptors = target: T3, α3β4 nACh receptors (Rattus norvegicus, UniProt P09483+P12390); test: as above; assay type: cell-based
# T3 construct: expressed in transfected cells; host or cells: HEK293 (ATCC CRL1573), transient transfection
# Protocol: as §1, §3
# [1] = test system: nicotine self-administration; test: nicotine self-administration; assay type: in vivo, rat; details: Example 7, FIGS. 11-12: mecamylamine 0.1 mg/kg i.p., 18-methoxycoronaridine 0.5 mg/kg i.p., dextromethorphan 0.5 mg/kg s.c., bupropion 5 mg/kg i.p.; 5-8 rats
# 5-HT3A receptors = target: T4, 5-HT3A receptors (Mus musculus, UniProt P23979); test: whole-cell patch-clamp of transfected HEK293 cells, 5-HT3A, 100 μM serotonin; assay type: cell-based
# T4 construct: expressed in transfected cells; host or cells: HEK293 (ATCC CRL1573), transient transfection
# T4 sequence (P23979 24-489): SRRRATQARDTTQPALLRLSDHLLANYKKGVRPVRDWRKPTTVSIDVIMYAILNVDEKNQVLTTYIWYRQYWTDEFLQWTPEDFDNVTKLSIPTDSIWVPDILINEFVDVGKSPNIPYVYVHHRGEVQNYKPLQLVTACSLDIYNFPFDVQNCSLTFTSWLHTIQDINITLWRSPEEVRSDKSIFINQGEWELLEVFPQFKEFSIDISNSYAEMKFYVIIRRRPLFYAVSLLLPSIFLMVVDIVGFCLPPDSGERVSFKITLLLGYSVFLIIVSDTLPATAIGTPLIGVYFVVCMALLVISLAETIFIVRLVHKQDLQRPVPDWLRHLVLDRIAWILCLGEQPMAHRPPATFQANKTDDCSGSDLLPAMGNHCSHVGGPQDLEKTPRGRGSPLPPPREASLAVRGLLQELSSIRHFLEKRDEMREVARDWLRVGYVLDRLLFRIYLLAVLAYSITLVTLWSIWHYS
# Protocol: as §1
# as §2, with “Transfected” for “To study these, transfected”, “5-HT3A” for “NR1/2A or NR1/2B”, “serotonin” for “glutamate plus 10 μM glycine”, “This is shown in FIG. 4, where” for “In FIGS. 3A and 3B,”
# T3 sequence (P09483 31-630): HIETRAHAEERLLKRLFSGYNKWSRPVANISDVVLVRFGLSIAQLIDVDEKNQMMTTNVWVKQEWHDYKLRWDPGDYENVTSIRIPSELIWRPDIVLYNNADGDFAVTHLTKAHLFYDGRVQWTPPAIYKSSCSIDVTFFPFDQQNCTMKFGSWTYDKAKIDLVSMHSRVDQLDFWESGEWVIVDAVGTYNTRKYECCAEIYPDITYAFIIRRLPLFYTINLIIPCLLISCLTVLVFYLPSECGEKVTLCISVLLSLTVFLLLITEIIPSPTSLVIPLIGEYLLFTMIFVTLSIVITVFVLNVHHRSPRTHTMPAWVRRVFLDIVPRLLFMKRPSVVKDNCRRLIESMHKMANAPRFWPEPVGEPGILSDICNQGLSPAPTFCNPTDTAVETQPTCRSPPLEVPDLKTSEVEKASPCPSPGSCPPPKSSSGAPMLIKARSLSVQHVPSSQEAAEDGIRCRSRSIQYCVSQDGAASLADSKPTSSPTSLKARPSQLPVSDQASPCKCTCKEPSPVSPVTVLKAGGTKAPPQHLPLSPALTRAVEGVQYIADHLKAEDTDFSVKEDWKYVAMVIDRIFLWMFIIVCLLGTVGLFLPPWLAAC
# T3 sequence (P12390 25-500): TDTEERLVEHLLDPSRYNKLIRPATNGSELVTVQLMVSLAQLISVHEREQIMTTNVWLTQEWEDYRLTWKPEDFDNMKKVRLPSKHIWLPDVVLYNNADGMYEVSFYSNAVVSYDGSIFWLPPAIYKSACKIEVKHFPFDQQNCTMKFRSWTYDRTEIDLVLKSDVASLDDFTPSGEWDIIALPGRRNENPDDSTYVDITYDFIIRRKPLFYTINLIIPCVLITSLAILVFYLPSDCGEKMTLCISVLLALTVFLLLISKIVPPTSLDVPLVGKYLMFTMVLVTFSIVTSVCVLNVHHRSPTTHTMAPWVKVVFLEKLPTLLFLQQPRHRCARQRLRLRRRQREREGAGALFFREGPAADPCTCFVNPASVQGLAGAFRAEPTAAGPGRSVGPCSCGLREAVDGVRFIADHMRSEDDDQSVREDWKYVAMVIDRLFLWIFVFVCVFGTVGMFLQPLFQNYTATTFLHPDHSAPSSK
# T1 sequence (Q00959 20-1464 limits assumed, other chains not shown): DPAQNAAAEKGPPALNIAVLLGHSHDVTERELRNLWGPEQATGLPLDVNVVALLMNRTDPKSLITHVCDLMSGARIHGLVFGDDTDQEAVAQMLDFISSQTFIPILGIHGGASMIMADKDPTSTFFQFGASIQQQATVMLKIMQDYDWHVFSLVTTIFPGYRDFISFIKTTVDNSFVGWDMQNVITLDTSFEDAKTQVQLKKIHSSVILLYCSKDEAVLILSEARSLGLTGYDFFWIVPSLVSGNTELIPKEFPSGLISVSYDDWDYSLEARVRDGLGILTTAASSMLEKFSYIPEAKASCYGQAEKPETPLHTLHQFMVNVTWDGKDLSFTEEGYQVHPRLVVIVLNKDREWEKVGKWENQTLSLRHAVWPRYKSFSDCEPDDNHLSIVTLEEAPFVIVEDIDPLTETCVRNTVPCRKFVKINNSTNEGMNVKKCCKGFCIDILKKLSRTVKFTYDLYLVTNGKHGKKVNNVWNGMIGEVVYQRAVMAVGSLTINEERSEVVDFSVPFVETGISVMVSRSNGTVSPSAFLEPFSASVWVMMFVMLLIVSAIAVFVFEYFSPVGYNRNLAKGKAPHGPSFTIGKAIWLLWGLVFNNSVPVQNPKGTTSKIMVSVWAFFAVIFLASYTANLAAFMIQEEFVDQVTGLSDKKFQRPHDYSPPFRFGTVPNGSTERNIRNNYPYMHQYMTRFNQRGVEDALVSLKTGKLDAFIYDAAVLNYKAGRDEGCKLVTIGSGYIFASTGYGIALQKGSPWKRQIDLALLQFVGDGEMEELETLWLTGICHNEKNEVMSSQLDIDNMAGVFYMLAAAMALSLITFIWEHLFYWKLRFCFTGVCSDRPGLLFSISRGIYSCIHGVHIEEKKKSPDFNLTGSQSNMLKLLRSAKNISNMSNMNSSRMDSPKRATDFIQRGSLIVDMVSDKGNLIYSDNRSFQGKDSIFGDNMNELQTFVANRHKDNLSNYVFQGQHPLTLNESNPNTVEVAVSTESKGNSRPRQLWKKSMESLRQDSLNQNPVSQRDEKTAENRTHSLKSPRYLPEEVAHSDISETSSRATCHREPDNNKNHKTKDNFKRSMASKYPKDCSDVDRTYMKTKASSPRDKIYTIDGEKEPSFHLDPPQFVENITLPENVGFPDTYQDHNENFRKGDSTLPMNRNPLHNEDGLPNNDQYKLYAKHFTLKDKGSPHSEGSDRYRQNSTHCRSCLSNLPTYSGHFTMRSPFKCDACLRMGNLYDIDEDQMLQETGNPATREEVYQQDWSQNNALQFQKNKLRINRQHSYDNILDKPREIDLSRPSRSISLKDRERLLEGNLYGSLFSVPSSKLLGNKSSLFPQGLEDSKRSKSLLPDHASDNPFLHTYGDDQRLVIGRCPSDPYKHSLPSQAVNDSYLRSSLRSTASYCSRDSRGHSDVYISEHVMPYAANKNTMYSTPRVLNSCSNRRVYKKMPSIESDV
# T2 sequence (P09483 31-630): as the sequence (P09483 31-630) above
# T2 sequence (P12390 25-500): as the sequence (P12390 25-500) above
compound,measurement,setting,value
COCC[C@H]1CC2CN3CCc4c([nH]c5ccccc45)[C@](C(=O)OC)(C2)[C@H]13 [18-methoxycoronaridine],response to drug applied alone (agonist activity),NR1/2A receptors; 20 μM drug alone,did not produce any response
same,inhibition of agonist-evoked response,"NR1/2A receptors; concentrations up to 20 μM, N=3, FIG. 3A",failed to inhibit
same,IC50,nACh receptors,> 20 µM
same,inhibition of ACh-evoked response,α3β4 nACh receptors; 5 μM drug with 300 μM ACh,no apparent inhibition
same,response to drug applied alone (agonist activity),"α3β4 nACh receptors; 20 μM drug alone, -70 mV",did not produce any response
same,inhibition of ACh-evoked response,"α3β4 nACh receptors; 20 μM drug with 300 μM ACh, FIG. 2",8 ±4%
same,effect on nicotine self-administration (percent of baseline),[1],"none of the drugs administered alone, significantly decreased"
same,response to drug applied alone (agonist activity),5-HT3A receptors; 20 μM drug alone,did not produce any response
same,inhibition of serotonin-evoked responses,"5-HT3A receptors; 20 μM drug with 100 μM serotonin, FIG. 4",50±3%
same,IC50,"5-HT3A receptors; approximate, from 20 μM data, read-out: IC50 at 5-HT3 receptors",~20 µM

# From patent US6780871B2, “Methods and compositions for treating addiction disorders” (Albany Medical College, priority 2001, dated 2004)
